Laboratory results from the SangsterLogP compilation.

CC(=O)Nc1cccc(O)c1
logP: 0.73

Nc1ccccc1Oc1ccccc1
logP: 2.46

COc1ccc(N(C)C)cc1
logP: 1.42

CC(=O)Nc1ccccc1O
logP: 0.72

CS(=O)(=O)c1ccc(C(=O)O)cc1
logP: 0.67

O=Cc1ccc(OCC(=O)O)cc1
logP: 0.79

Cc1cccc(N(C)C)c1
logP: 2.8

Cc1ccccc1C=O
logP: 2.26

COc1ccccc1Oc1ccccc1
logP: 2.92

CSc1ccc(C(=O)O)cc1
logP: 2.74

COc1ccccc1N(C)C
logP: 1.63

O=C(O)Cc1ccc(C(F)(F)F)cc1
logP: 2.45

CSc1ccccc1N
logP: 1.2

O=C(O)c1ccc(Oc2ccccc2)cc1
logP: 3.21

Oc1cccc(-c2ccccc2)c1
logP: 3.23

CC(=O)Nc1ccccc1C(=O)O
logP: 1.73

CSc1ccc(O)cc1
logP: 1.78

CC(=O)Oc1ccc(C)cc1
logP: 2.11

Nc1ccc(Oc2ccccc2)cc1
logP: 2.36

N#Cc1ccccc1O
logP: 1.59

CS(=O)(=O)c1ccc(N)cc1
logP: -0.12

CC(=O)Oc1cccc(C)c1
logP: 2.09

CSc1cccc(N)c1
logP: 1.45
